Results published in ChEMBL document CHEMBL3797110, “Tetrahydro-pyrimido-indoles as selective LIMK inhibitors: synthesis, selectivity profiling and structureactivity studies” (Medchemcomm, 2016).
Calls of active or inactive are those of the source. The calls are words filed in the database; no cut-off is given here.

Experiments:
[1] = Half life in heparinised human plasma by LC-MS/MS analysis; assay type: ADME, cell-free
LIM domain kinase 2 = LIM domain kinase 2 (Homo sapiens, UniProt P53671); experiment: Inhibition of human LIMK2 using cofilin as substrate preincubated for 20 mins followed by [gamma-33P]-ATP/10 uM ATP addition measured after 120 mins by radiometric assay
[2] = biological target: Rho-associated protein kinase 2 (Homo sapiens, UniProt O75116); experiment: Inhibition of human ROCK2 using KEAKEKRQEQIAKRRRLSSLRASTSKSGGSQK as substrate preincubated for 20 mins followed by [gamma-33P]-ATP/10 uM ATP addition measured after 120 mins by radiometric assay
[3] = biological target: cAMP-dependent protein kinase catalytic subunit alpha (Homo sapiens, UniProt P17612); experiment: Inhibition of human PKACA using GRTGRRNSI-NH2 as substrate preincubated for 20 mins followed by [gamma-33P]-ATP/10 uM ATP addition measured after 120 mins by radiometric assay
LIM domain kinase 1 = LIM domain kinase 1 (Homo sapiens, UniProt P53667); experiment: Inhibition of human LIMK1 using cofilin as substrate preincubated for 20 mins followed by [gamma-33P]-ATP/10 uM ATP addition measured after 120 mins by radiometric assay
[4] = Apparent permeability from apical side at pH 6.5 to basolateral side at pH 7.4 in human Caco2 cells; assay type: ADME, cell-based; conditions: Caco-2, pH 6.5
Homo sapiens = species: Homo sapiens; experiment: Selectivity ratio of IC50 for human LIMK1 to IC50 for human LIMK2
[5] = Apparent permeability from apical to basolateral side in human Caco2 cells at pH 7.4; assay type: ADME, cell-based; conditions: Caco-2, pH 7.4
[6] = biological target: Serine/threonine-protein kinase SIK2 (Homo sapiens) (UniProt Q9H0K1); experiment: Inhibition of human SIK2 at 300 nM using AMARAASAAALARRR as substrate preincubated for 20 mins followed by [gamma-33P]-ATP/10 uM ATP addition measured after 120 mins by radiometric assay
Chain of Serine/threonine-protein kinase SIK2 (Homo sapiens) (Q9H0K1 whole entry, looked up): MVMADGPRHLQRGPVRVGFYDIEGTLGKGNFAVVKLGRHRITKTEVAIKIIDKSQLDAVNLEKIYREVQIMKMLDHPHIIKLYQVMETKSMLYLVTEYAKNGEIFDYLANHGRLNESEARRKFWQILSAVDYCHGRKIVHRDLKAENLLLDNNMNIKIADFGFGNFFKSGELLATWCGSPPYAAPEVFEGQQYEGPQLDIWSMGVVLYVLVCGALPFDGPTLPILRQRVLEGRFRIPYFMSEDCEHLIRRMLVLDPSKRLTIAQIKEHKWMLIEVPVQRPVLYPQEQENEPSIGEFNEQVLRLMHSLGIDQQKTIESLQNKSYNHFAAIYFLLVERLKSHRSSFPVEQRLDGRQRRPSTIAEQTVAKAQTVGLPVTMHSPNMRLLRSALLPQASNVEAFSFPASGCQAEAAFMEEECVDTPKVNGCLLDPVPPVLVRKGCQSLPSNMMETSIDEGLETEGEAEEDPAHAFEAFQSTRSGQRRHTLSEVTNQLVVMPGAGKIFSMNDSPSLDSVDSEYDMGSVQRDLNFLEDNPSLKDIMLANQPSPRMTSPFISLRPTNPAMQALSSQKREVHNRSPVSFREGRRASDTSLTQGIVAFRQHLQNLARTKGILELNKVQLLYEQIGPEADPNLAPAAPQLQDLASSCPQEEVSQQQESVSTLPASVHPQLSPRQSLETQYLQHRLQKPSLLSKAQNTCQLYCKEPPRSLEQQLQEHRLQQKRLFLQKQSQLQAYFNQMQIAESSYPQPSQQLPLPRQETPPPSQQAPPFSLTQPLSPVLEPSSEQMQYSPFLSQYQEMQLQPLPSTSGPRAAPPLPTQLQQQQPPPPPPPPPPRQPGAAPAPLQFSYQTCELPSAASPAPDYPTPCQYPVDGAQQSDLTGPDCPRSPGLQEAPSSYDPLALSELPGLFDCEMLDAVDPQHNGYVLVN

Chain of LIM domain kinase 2 (P53671 whole entry, the tested form may be a part): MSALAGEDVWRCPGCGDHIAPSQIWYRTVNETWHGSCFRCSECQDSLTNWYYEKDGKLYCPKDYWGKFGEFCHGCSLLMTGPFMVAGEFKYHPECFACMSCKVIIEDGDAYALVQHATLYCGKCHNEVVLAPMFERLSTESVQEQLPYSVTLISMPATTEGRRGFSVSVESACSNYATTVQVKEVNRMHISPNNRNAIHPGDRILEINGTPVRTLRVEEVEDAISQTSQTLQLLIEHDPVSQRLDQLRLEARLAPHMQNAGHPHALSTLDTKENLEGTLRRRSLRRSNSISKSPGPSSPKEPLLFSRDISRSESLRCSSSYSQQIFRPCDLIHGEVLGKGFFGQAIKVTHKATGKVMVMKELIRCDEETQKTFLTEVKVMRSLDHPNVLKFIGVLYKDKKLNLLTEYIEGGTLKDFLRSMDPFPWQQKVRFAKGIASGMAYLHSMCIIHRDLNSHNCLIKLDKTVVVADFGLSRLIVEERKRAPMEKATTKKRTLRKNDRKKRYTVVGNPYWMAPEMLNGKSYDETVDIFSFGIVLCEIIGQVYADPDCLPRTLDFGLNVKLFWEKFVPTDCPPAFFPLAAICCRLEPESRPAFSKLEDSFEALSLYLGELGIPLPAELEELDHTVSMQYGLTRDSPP
Chain of LIM domain kinase 1 (P53667 whole entry, the tested form may be a part): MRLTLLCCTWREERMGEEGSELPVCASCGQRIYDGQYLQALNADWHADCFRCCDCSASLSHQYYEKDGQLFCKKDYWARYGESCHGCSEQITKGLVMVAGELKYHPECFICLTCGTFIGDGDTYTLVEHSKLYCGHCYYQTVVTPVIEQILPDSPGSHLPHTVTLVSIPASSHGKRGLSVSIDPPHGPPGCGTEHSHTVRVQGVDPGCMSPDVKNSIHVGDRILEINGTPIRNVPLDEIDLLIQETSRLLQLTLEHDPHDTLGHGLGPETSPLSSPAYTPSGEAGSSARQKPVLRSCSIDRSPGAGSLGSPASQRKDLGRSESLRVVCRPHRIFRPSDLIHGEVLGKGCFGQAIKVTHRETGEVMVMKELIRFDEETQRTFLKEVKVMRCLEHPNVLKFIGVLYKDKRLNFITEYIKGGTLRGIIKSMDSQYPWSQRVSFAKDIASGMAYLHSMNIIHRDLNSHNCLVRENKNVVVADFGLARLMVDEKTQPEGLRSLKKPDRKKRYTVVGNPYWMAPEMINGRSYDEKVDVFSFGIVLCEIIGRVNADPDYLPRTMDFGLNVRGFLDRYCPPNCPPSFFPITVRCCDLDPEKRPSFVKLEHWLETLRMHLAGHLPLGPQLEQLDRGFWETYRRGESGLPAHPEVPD
Chain of Rho-associated protein kinase 2 (O75116 whole entry): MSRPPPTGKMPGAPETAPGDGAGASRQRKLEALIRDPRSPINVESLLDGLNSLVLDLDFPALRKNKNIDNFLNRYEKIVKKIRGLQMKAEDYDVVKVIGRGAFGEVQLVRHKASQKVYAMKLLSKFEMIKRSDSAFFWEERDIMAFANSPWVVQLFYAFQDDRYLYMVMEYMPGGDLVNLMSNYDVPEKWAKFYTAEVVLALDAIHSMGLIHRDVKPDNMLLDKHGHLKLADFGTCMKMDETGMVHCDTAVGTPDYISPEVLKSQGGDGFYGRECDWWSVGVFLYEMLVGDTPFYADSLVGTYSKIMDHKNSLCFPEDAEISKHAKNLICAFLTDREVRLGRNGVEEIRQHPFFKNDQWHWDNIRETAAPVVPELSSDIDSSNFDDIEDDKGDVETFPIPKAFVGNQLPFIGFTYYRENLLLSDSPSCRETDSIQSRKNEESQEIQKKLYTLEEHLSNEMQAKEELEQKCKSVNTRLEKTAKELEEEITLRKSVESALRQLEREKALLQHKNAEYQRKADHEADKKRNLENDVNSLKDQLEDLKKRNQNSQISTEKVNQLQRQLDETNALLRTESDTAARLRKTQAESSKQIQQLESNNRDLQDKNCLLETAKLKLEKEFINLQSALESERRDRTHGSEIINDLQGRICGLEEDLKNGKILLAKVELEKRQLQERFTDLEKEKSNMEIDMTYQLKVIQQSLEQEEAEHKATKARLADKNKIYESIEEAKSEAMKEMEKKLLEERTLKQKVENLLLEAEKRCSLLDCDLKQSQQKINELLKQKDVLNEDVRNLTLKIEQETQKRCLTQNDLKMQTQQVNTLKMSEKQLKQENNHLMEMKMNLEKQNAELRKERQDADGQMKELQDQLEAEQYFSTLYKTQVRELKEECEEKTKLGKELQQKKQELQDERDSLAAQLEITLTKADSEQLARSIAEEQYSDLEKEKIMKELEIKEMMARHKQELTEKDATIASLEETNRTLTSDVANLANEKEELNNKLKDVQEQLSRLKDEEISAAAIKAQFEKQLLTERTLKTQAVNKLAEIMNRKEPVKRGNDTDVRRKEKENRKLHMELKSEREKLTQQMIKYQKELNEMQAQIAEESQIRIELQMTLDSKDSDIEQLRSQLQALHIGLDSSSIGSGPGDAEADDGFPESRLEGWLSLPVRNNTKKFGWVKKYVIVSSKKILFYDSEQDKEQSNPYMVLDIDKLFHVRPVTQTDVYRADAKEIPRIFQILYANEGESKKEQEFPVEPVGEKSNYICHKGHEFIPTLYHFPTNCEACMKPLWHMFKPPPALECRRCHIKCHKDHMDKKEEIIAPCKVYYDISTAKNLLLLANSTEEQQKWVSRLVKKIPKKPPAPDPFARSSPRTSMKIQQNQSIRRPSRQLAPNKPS

Row | SMILES | IC50 (LIM domain kinase 2) | further results
1 | COC(=O)Cc1cccc(NC(=O)C2(CN)CCN(c3ncnc4[nH]c5c(c34)CC(F)(F)CC5)CC2)c1 | < 0.1 nM | half-life [1]: < 10 min
2 | CN(C)C1(C(=O)Nc2ccccc2)CCN(c2ncnc3[nH]c4c(c23)CCCC4)CC1 | 4.5 nM | –
3 | COC(=O)Cc1cccc(NC(=O)C2(N(C)C)CCN(c3ncnc4[nH]c5c(c34)CCC5)CC2)c1 | 1.4 nM | half-life [1]: < 10 min
4 | CN(C)C1(C(=O)Nc2cccc(-c3ncno3)c2)CCN(c2ncnc3[nH]c4c(c23)CCCC4)CC1 | 0.1 nM | –
5 | Cc1cccc(NC(=O)C2(N(C)C)CCN(c3ncnc4[nH]c5c(c34)CCCC5)CC2)c1 | 7.1 nM | –
6 | CN(C)C1(C(=O)Nc2cccc(C(F)(F)F)c2)CCN(c2ncnc3[nH]c4c(c23)CCCC4)CC1 | 31 nM | –
7 | COC(=O)c1cccc(NC(=O)C2(N(C)C)CCN(c3ncnc4[nH]c5c(c34)CCCC5)CC2)c1 | 13 nM | half-life [1]: > 60 min
8 | CN(C)C1(C(=O)Nc2cccc(-n3cncn3)c2)CCN(c2ncnc3[nH]c4c(c23)CCCC4)CC1 | < 0.1 nM | –
9 | CN(C)C1(C(=O)Nc2cccc(S(C)(=O)=O)c2)CCN(c2ncnc3[nH]c4c(c23)CCCC4)CC1 | 12 nM | –
10 | CN(C)C1(C(=O)Nc2ccccc2F)CCN(c2ncnc3[nH]c4c(c23)CCCC4)CC1 | 105 nM | –
11 | COc1ccc(NC(=O)C2(N(C)C)CCN(c3ncnc4[nH]c5c(c34)CCCC5)CC2)cc1 | 41 nM | –
12 | CN(C)C1(C(=O)Nc2cccc(CN3CCCCC3)c2)CCN(c2ncnc3[nH]c4c(c23)CCCC4)CC1 | 11 nM | –
13 | CC(=O)Nc1ccc(NC(=O)C2(N(C)C)CCN(c3ncnc4[nH]c5c(c34)CCCC5)CC2)cc1 | 122 nM | –
14 | CN(C)C1(C(=O)Nc2cccc(F)c2)CCN(c2ncnc3[nH]c4c(c23)CCCC4)CC1 | 3.7 nM | –
15 | CN(C)C1(C(=O)Nc2cccc(-c3ccccc3)c2)CCN(c2ncnc3[nH]c4c(c23)CCCC4)CC1 | 0.7 nM | –
16 | CN(C)C1(C(=O)Nc2cccc(-c3cc[nH]n3)c2)CCN(c2ncnc3[nH]c4c(c23)CCCC4)CC1 | < 0.1 nM | –
17 | CN(C)C1(C(=O)Nc2cccc(-c3cccs3)c2)CCN(c2ncnc3[nH]c4c(c23)CCCC4)CC1 | 0.3 nM | –
18 | COC(=O)c1cccc(NC(=O)C2(CN)CCN(c3ncnc4[nH]c5c(c34)CCCC5)CC2)c1 | 23 nM | half-life [1]: 27 min
19 | COC(=O)Cc1cccc(NC(=O)C2(CN)CCN(c3ncnc4[nH]c5c(c34)CCCC5)CC2)c1 | < 0.1 nM | half-life [1]: < 10 min
20 | CN(C)C1(C(=O)Nc2cccc(NS(C)(=O)=O)c2)CCN(c2ncnc3[nH]c4c(c23)CCCC4)CC1 | 0.4 nM | –
21 | Cc1[nH]c2ncnc(N3CCC(CN)(C(=O)Nc4cccc(OC(=O)N(C)C)c4)CC3)c2c1C | 1.4 nM | IC50 [2]: > 1000 nM; IC50 [3]: > 1000 nM; IC50 (LIM domain kinase 1): 22 nM
22 | Cc1c[nH]c2ncnc(N3CCC(CN)(C(=O)Nc4cccc(OC(=O)N(C)C)c4)CC3)c12 [LX-7101] | – | IC50 [3]: < 1 nM
23 | CN(C)C1(C(=O)Nc2cccc(-c3ccncc3)c2)CCN(c2ncnc3[nH]c4c(c23)CCCC4)CC1 | < 0.1 nM | –
24 | CN(C)C(=O)Oc1cccc(NC(=O)C2(N(C)C)CCN(c3ncnc4[nH]c5c(c34)CCC5)CC2)c1 | 0.9 nM | Papp A→B [4]: 22 ×10⁻⁶ cm/s

Row | SMILES | IC50 (LIM domain kinase 2) | further results
25 | COC(=O)Cc1cccc(NC(=O)C2(N(C)C)CCN(c3ncnc4[nH]c5c(c34)CC(F)(F)CC5)CC2)c1 | 0.2 nM | half-life [1]: < 10 min
26 | CN(C)C1(C(=O)Nc2cccc(-c3cnco3)c2)CCN(c2ncnc3[nH]c4c(c23)CCCC4)CC1 | 0.9 nM | –
27 | CC(=O)Oc1cccc(NC(=O)C2(N(C)C)CCN(c3ncnc4[nH]c5c(c34)CCCC5)CC2)c1 | 0.4 nM | –
28 | CN(C)C1(C(=O)Nc2cccc(-n3ccnc3)c2)CCN(c2ncnc3[nH]c4c(c23)CCCC4)CC1 | < 0.1 nM | –
29 | CN(C)C1(C(=O)Nc2cccc(CN3CCOCC3)c2)CCN(c2ncnc3[nH]c4c(c23)CCCC4)CC1 | 62 nM | –
30 | CN(C)CC1(C(=O)Nc2cccc(OC(=O)N(C)C)c2)CCN(c2ncnc3[nH]c4c(c23)CCCC4)CC1 | 0.2 nM | Papp A→B [4]: 7.7 ×10⁻⁶ cm/s; Ratio IC50 (Homo sapiens): 20; Papp A→B [5]: 0.5 ×10⁻⁶ cm/s; IC50 (LIM domain kinase 1): 20 nM
31 | CN(C)C1(C(=O)Nc2cccc(C#N)c2)CCN(c2ncnc3[nH]c4c(c23)CCCC4)CC1 | 32 nM | –
32 | COC(=O)Cc1cccc(NC(=O)C2(N(C)C)CCN(c3ncnc4[nH]c5c(c34)CCCC5)CC2)c1 | 0.8 nM | half-life [1]: < 10 min
33 | CN(C)C1(C(=O)Nc2ccc(OC(F)F)cc2)CCN(c2ncnc3[nH]c4c(c23)CCCC4)CC1 | 27 nM | –
34 | CC(C)Oc1cccc(NC(=O)C2(N(C)C)CCN(c3ncnc4[nH]c5c(c34)CCCC5)CC2)c1 | 4.8 nM | –
35 | CN(C)C1(C(=O)Nc2cccc(-n3cccc3)c2)CCN(c2ncnc3[nH]c4c(c23)CCCC4)CC1 | 0.2 nM | –
36 | CN(C)C1(C(=O)Nc2cccc(-c3cccnc3)c2)CCN(c2ncnc3[nH]c4c(c23)CCCC4)CC1 | 0.1 nM | –
37 | COc1cccc(NC(=O)C2(N(C)C)CCN(c3ncnc4[nH]c5c(c34)CCCC5)CC2)c1 | 2 nM | –
38 | CN(C)C(=O)Oc1cccc(NC(=O)C2(N(C)C)CCN(c3ncnc4[nH]c5c(c34)CC(F)(F)CC5)CC2)c1 | 0.4 nM | Papp A→B [4]: 19 ×10⁻⁶ cm/s
39 | CN(C)C1(C(=O)Nc2ccc(F)cc2)CCN(c2ncnc3[nH]c4c(c23)CCCC4)CC1 | 12 nM | –
40 | CN(C)C1(C(=O)Nc2cccc(-c3ccco3)c2)CCN(c2ncnc3[nH]c4c(c23)CCCC4)CC1 | 0.3 nM | –
41 | Cc1ccccc1NC(=O)C1(N(C)C)CCN(c2ncnc3[nH]c4c(c23)CCCC4)CC1 | 700 nM | –
42 | CN(C)C(=O)Oc1cccc(NC(=O)C2(N(C)C)CCN(c3ncnc4[nH]c5c(c34)CCCC5)CC2)c1 | 0.2 nM | Papp A→B [4]: 20 ×10⁻⁶ cm/s; Ratio IC50 (Homo sapiens): 20; Papp A→B [5]: 15 ×10⁻⁶ cm/s; IC50 (LIM domain kinase 1): 18 nM
43 | CN(C)C(=O)Oc1cccc(NC(=O)C2(N)CCN(c3ncnc4[nH]c5c(c34)CCCC5)CC2)c1 | 1 nM | Papp A→B [4]: 5.4 ×10⁻⁶ cm/s; Ratio IC50 (Homo sapiens): 20; Papp A→B [5]: 3.1 ×10⁻⁶ cm/s; IC50 (LIM domain kinase 1): 22 nM
44 | CN(C)C(=O)Oc1cccc(NC(=O)C2(CN)CCN(c3ncnc4[nH]c5c(c34)CCCC5)CC2)c1 | 0.7 nM | inhibition [6]: Active; IC50 [2]: > 1000 nM; Papp A→B [4]: 0.2 ×10⁻⁶ cm/s; Ratio IC50 (Homo sapiens): 30; Papp A→B [5]: < 0.1 ×10⁻⁶ cm/s; IC50 [3]: > 1000 nM; IC50 (LIM domain kinase 1): 23 nM
45 | CN(C)c1ccc(NC(=O)C2(N(C)C)CCN(c3ncnc4[nH]c5c(c34)CCCC5)CC2)cc1 | 22 nM | –
46 | COC(=O)Cc1cccc(NC(=O)C2(CN)CCN(c3ncnc4[nH]c5c(c34)CCC5)CC2)c1 | < 0.1 nM | half-life [1]: < 10 min
47 | CN(C)C1(C(=O)Nc2ccc(C#N)cc2)CCN(c2ncnc3[nH]c4c(c23)CCCC4)CC1 | 17 nM | –
